“Also recorded” adds a separate entry of the source.
Tested on: nitric oxide synthase (NOS)
Assay: Blockage of nitric oxide synthase by L-NAME and Tx2-6 action on erectile function (ICP/MAP) in rats
Assay type: in vivo, rat
Description: The participation of nitric oxide, resulting from the toxin effect on erection, was tested by using a nonselective inhibitor of the nitric oxide synthase enzyme, L-NAME (L-N^G-nitro-arginine methyl ester), intracavernosally injected (200 mg/Kg) in normotensive rats treated with Tx2-6 (subcutaneously injected; 48 μg/Kg).
Nitric oxide (NO) is generated from the amino acid L-arginine by means of the NOS enzyme action. This synthesis occurs in different parts of the organism, including the corpus cavernosum. In this experiment, an inhibitor nonspecific for NOS (L-NAME, 200 mg/Kg) was injected intracavemosally.

COC(=O)[C@@H](N)CCCNC(=N)N[N+](=O)[O-] [L-NAME, L-N^G-nitro-arginine methyl ester]
effect of L-NAME on rat erectile function (ICP/AMP ratio) (L-NAME 200 mg/Kg intracavernosal, submaximum stimulation): blocked rat erectile function; also recorded: significant blockage
effect of L-NAME on the potentiator effect of erection caused by the toxin (ICP/MAP relation) (L-NAME with Tx2-6): completely blocked

Source: patent US20110236467A1, “METHOD FOR ERECTILE FUNCTION PO[…] PHARMACEUTICAL CO[…] TX2-6 OF THE SPIDER PHONEUTRIA NIGRIVENTER” (priority 2008, published 2011)
